What was measured:
NCI-H82 = assay: Small-cell-lung cancer cell proliferation inhibition assay (PrestoBlue), NCI-H82; format: cell-based; details: Homo sapiens, cMYC amplified SCLC cells, 72 hours
Experimental: (§1) Small cell lung cancer cells NCI-H82 (ATCC HTB-175, cMYC amplified), NCI-H446 (ATCC® HTB-171, cMYC amplified), and NCI-H69 (ATCC® HTB-119, MYCN amplified) were seeded at the density of 5000-10000 cells per well in 96-well plates. After 24 hours, the cancer cells were treated with each compound at various concentrations (0-10 μM) and then incubated for another 72 hours. IC50 values were computed based on duplicated 8-point titration.

NCI-H446 = assay: Small-cell-lung cancer cell proliferation inhibition assay (PrestoBlue), NCI-H446; format: cell-based; details: Homo sapiens, cMYC amplified SCLC cells, 72 hours
Experimental: as §1

[1] = target: T1, human Aurora A (amino acids 123-401) (Homo sapiens, UniProt O14965); assay: Kinase-Glo Luminescent Kinase assay, in vitro inhibition of Aurora A kinase activity; format: biochemical; details: recombinant GST-tagged Aurora A, 5.0 μM ATP, 37° C., 120 minutes
T1 construct: human Aurora A (amino acids 123-401) was expressed in Sf9 insect cells; GST; made in house; host or cells: Sf9 insect cells
T1 sequence (O14965 123-401): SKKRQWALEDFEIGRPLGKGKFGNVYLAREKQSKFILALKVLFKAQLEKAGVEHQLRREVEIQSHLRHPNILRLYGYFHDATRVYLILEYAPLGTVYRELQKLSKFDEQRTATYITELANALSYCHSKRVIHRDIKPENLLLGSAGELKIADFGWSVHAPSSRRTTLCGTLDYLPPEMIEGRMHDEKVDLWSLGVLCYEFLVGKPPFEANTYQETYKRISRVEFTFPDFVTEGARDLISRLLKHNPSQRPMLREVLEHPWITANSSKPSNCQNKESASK
Experimental: Recombinant glutathione S-transferase (GST)-tagged N-terminal truncated human Aurora A (amino acids 123-401) was expressed in Sf9 insect cells and then purified by glutathione affinity chromatography to afford recombinant Aurora A. Recombinant Aurora A (150 ng) was reacted with each test compound (100 nM) in 50 μL of 50 mM Tris-HCl pH 7.4, 10 mM NaCl, 10 mM MgCl2, 0.01% bovine serum albumin, 5.0 μM ATP, 1 mM dithiothreitol, 15 μM tetra(-LRRASLG) peptide at 37° C. for 120 minutes. Then, to the reaction was added 50 μL of Kinase-Glo Plus Reagent. The resulting mixture was incubated at 25° C. for 20 minutes. A 70 μL aliquot of the mixture was transferred to a black microliter plate. Luminescence was measured using a Wallac Vector 1420 multilabel counter (PerkinElmer, USA).

| Compound | IC50 (NCI-H82) [nM] | IC50 (NCI-H446) [nM] | IC50 [1] [nM] |
| --- | --- | --- | --- |
| CCN1CCN(c2cc(Nc3ncc(C#N)s3)nc(N[C@H]3CCN(C(=O)c4ccc(Cl)cc4F)C3)n2)CC1 [Compound 1] | < 1000 | < 1000 | < 100 |
| CCOC(=O)c1cnc(Nc2cc(N3CCN(C)CC3)nc(N[C@H]3CCN(C(=O)c4ccc(Cl)cc4F)C3)n2)s1 [Compound 2] | < 1000 | – | < 100 |
| Cc1cc(Nc2cc(N3CC(N(C)C)C3)nc(N[C@H]3CCN(C(=O)c4ccc(Cl)cc4F)C3)n2)n[nH]1 [Compound 8] | < 1000 | < 1000 | < 100 |
| CC(=O)N1CCN(c2cc(Nc3cc(C)[nH]n3)nc(N[C@H]3CCN(C(=O)c4ccc(Cl)cc4F)C3)n2)CC1 [Compound 12] | < 1000 | < 1000 | < 100 |
| COCCN(C)c1cc(Nc2cc(C)[nH]n2)nc(N[C@H]2CCN(C(=O)c3ccc(Cl)cc3F)C2)n1 [Compound 17] | < 1000 | < 1000 | < 100 |
| Cc1cc(Nc2cc(N3CC[C@@H](N(C)C)C3)nc(N[C@H]3CCN(C(=O)c4ccc(Cl)cc4F)C3)n2)n[nH]1 [Compound 18] | < 1000 | < 1000 | – |
| COC1CN(c2cc(Nc3cc(C)[nH]n3)nc(N[C@H]3CCN(C(=O)c4ccc(Cl)cc4F)C3)n2)C1 [Compound 19] | < 1000 | < 1000 | < 100 |
| Cc1cc(Nc2cc(N3CC[C@@H](N(C)C)C3)nc(N[C@H]3CCN(C(=O)c4cccc(Cl)c4F)C3)n2)n[nH]1 [Compound 20] | – | – | < 100 |
| Cc1cc(Nc2cc(N3CC[C@H](N(C)C)C3)nc(N[C@H]3CCN(C(=O)c4cccc(Cl)c4F)C3)n2)n[nH]1 [Compound 22] | < 1000 | < 1000 | < 100 |
| COC[C@@H]1CCCN1c1cc(Nc2cc(C)[nH]n2)nc(N[C@H]2CCN(C(=O)c3cccc(Cl)c3F)C2)n1 [Compound 23] | – | – | < 100 |
| COC[C@H]1CCCN1c1cc(Nc2cc(C)[nH]n2)nc(N[C@H]2CCN(C(=O)c3cccc(Cl)c3F)C2)n1 [Compound 24] | – | – | < 100 |
| Cc1cc(Nc2cc(N3CC(N(C)C)C3)nc(N[C@H]3CCN(C(=O)c4cccc(Cl)c4F)C3)n2)n[nH]1 [Compound 25] | < 1000 | < 1000 | < 100 |
| Cc1cc(Nc2cc(N3CCNCC3)nc(N[C@H]3CCN(C(=O)c4cccc(Cl)c4F)C3)n2)n[nH]1 [Compound 26] | < 1000 | < 1000 | < 100 |
| Cc1cc(Nc2cc(N(C)CCN(C)C)nc(N[C@H]3CCN(C(=O)c4cccc(Cl)c4F)C3)n2)n[nH]1 [Compound 27] | < 1000 | < 1000 | < 100 |
| COC1CCN(c2cc(Nc3cc(C)[nH]n3)nc(N[C@H]3CCN(C(=O)c4cccc(Cl)c4F)C3)n2)CC1 [Compound 28] | – | – | < 100 |
| CCN1CCN(c2cc(Nc3cc(C)[nH]n3)nc(N[C@H]3CCN(C(=O)c4ccc(Cl)cc4)C3)n2)CC1 [Compound 29] | – | – | < 100 |
| Cc1cc(Nc2cc(N3CCN(C)CC3)nc(N[C@H]3CCN(Cc4cccc(Cl)c4F)C3)n2)n[nH]1 [Compound 30] | – | – | < 100 |
| CCN1CCN(c2cc(Nc3cc(C)[nH]n3)nc(N[C@H]3CCN(Cc4cccc(Cl)c4F)C3)n2)CC1 [Compound 31] | < 1000 | < 1000 | < 100 |
| CCN1CCN(c2cc(Nc3cc(C)[nH]n3)nc(N[C@H]3CCN(C(=O)c4ccc(Cl)cc4Cl)C3)n2)CC1 [Compound 32] | < 1000 | < 1000 | < 100 |
| CCN1CCN(c2cc(Nc3cc(C)[nH]n3)nc(N[C@H]3CCN(C(=O)c4ccc(Cl)c(C)c4)C3)n2)CC1 [Compound 33] | – | – | < 100 |
| CCN1CCN(c2cc(Nc3cc(C)[nH]n3)nc(N[C@H]3CCN(C(=O)c4ccc(Cl)cc4C)C3)n2)CC1 [Compound 34] | – | – | < 100 |
| Cc1cc(Nc2cc(N3CCN(C)CC3)nc(N[C@H]3CCN(C(=O)c4cccc(Cl)c4F)C3)n2)n[nH]1 [Compound 35] | < 1000 | < 1000 | < 100 |
| Cc1cc(Nc2cc(N3CCN(C)CC3)nc(N[C@H]3CCN(C(=O)c4ccc(Cl)cc4F)C3)n2)n[nH]1 [Compound 36] | < 1000 | < 1000 | < 100 |
| CCN1CCN(c2cc(Nc3cc(C)[nH]n3)nc(N[C@H]3CCN(C(=O)c4cc(Cl)ccc4F)C3)n2)CC1 [Compound 37] | < 1000 | < 1000 | < 100 |
| CCN1CCN(c2cc(Nc3cc(C)[nH]n3)nc(N[C@H]3CCN(C(=O)c4cccc(Cl)c4F)C3)n2)CC1 [Compound 38] | < 1000 | < 1000 | < 100 |

| Compound | IC50 (NCI-H82) [nM] | IC50 (NCI-H446) [nM] | IC50 [1] [nM] |
| --- | --- | --- | --- |
| CCN1CCN(c2cc(Nc3cc(C)[nH]n3)nc(N[C@H]3CCN(C(=O)c4ccc(Cl)c(F)c4)C3)n2)CC1 [Compound 39] | < 1000 | < 1000 | < 100 |
| CCN1CCN(c2cc(Nc3cc(C)[nH]n3)nc(N[C@H]3CCN(C(=O)c4ccc(Cl)c(F)c4F)C3)n2)CC1 [Compound 40] | < 1000 | < 1000 | < 100 |
| CCN1CCN(c2cc(Nc3cc(C)[nH]n3)nc(N[C@H]3CCN(C(=O)c4cc(F)c(Cl)cc4F)C3)n2)CC1 [Compound 43] | < 1000 | < 1000 | < 100 |
| CCN1CCN(c2cc(Nc3cc(C)[nH]n3)nc(N[C@H]3CCN(C(=O)c4ccc(F)cc4F)C3)n2)CC1 [Compound 44] | < 1000 | < 1000 | < 100 |
| CCN1CCN(c2cc(Nc3cc(C)[nH]n3)nc(N[C@H]3CCN(C(=O)c4c(F)cc(Cl)cc4F)C3)n2)CC1 [Compound 47] | < 1000 | < 1000 | < 100 |
| CCN1CCN(c2cc(Nc3cc(C)[nH]n3)nc(N[C@H]3CCN(C(=O)c4cccc(C(F)(F)F)c4F)C3)n2)CC1 [Compound 48] | < 1000 | < 1000 | < 100 |
| CCN1CCN(c2cc(Nc3cc(C)[nH]n3)nc(N[C@H]3CCN(C(=O)c4ccc(Cl)c(C(F)(F)F)c4)C3)n2)CC1 [Compound 49] | < 1000 | < 1000 | < 100 |
| CCN1CCN(c2cc(Nc3cc(C)[nH]n3)nc(N[C@H]3CCN(C(=O)c4nc(Cl)ccc4F)C3)n2)CC1 [Compound 50] | < 1000 | < 1000 | < 100 |
| CCN1CCN(c2cc(Nc3cc(C)[nH]n3)nc(NC3CCN(C(=O)c4cccc(Cl)c4F)C3)n2)CC1 (centres unmarked) [Compound 58] | – | – | < 100 |
| CCN1CCN(c2cc(Nc3cc(C)nn3C(C)=O)nc(N[C@H]3CCN(C(=O)c4ccc(Cl)cc4F)C3)n2)CC1 [Compound 70] | < 1000 | < 1000 | – |
| COCCN(C)c1cc(Nc2cc(C)[nH]n2)nc(NC2CCN(C(=O)c3cccc(Cl)c3F)CC2)n1 [Compound 98] | < 1000 | < 1000 | – |
| CCN1CCN(c2cc(Nc3cc(C)[nH]n3)nc(N(CC)C3CCN(C(=O)c4cccc(Cl)c4F)CC3)n2)CC1 [Compound 109] | – | – | < 100 |
| Cc1cc(Nc2ccnc(NC3CCN(Cc4cccc(Cl)c4F)CC3)n2)n[nH]1 [Compound 110] | – | – | < 100 |
| Cc1cc(Nc2cc(C)[nH]n2)nc(N(C)C2CCN(Cc3cccc(Cl)c3F)CC2)n1 [Compound 111] | – | – | < 100 |
| Cc1cc(Nc2ccnc(NC3CCN(C(=O)c4cccc(F)c4F)CC3)n2)n[nH]1 [Compound 113] | – | – | < 100 |
| Cc1cc(Nc2cc(C)[nH]n2)nc(NC2CCN(C(=O)c3cccc(F)c3F)CC2)n1 [Compound 114] | – | – | < 100 |
| Cc1cc(Nc2nccs2)nc(N(C)C2CCN(Cc3cccc(Cl)c3F)CC2)n1 [Compound 115] | – | – | < 100 |
| Cc1cc(Nc2nccs2)nc(NC2CCN(Cc3cccc(Cl)c3F)CC2)n1 [Compound 116] | – | – | < 100 |
| Cc1cc(Nc2ccnc(NC3CCN(C(=O)c4cccc(Cl)c4Cl)CC3)n2)n[nH]1 [Compound 118] | – | – | < 100 |
| Cc1cc(Nc2cc(C)[nH]n2)nc(NC2CCN(Cc3cccc(Cl)c3F)CC2)n1 [Compound 119] | – | – | < 100 |
| Cc1cc(Nc2cc(C)[nH]n2)nc(NC2CCN(C(=O)c3cccc(Cl)c3F)CC2)n1 [Compound 120] | – | – | < 100 |
| Cc1cc(Nc2cc(C)[nH]n2)nc(NC2CCN(C(=O)c3cccc(Cl)c3Cl)CC2)n1 [Compound 121] | – | – | < 100 |
| CCN1CCN(c2cc(Nc3cc(C)nn3C(=O)C(C)C)nc(NC3CCN(C(=O)c4cccc(Cl)c4F)CC3)n2)CC1 [Compound 124] | < 1000 | < 1000 | – |
| CCCC(=O)n1nc(C)cc1Nc1cc(N2CCN(CC)CC2)nc(NC2CCN(C(=O)c3cccc(Cl)c3F)CC2)n1 [Compound 125] | < 1000 | < 1000 | – |

Source: patent publication US12679827B2, “Pyrimidine compounds and their pharmaceutical uses” (National Health Research Institutes, priority 2020, dated 2026)
